In ChEMBL document CHEMBL5107949, “Design, synthesis, and antibacterial activity of N-(trifluoromethyl)phenyl substituted pyrazole derivatives” (RSC Med Chem, 2021):
In brackets after ≈: the same amount, converted by molar mass.

Key:
Staphylococcus aureus [1] = test: Antibacterial activity against antibiotic susceptible Staphylococcus aureus ATCC 25923 assessed as inhibition of bacterial growth by CLSI protocol based broth microdilution method; format: functional
Staphylococcus aureus [2] = test: Antibacterial activity against antibiotic resistant Staphylococcus aureus ATCC 33591 assessed as inhibition of bacterial growth by CLSI protocol based broth microdilution method; format: functional
Staphylococcus aureus [3] = test: Antibacterial activity against antibiotic resistant Staphylococcus aureus ATCC 33592 assessed as inhibition of bacterial growth by CLSI protocol based broth microdilution method; format: functional
Staphylococcus aureus [4] = test: Antibacterial activity against antibiotic resistant Staphylococcus aureus BAA-2312 assessed as inhibition of bacterial growth by CLSI protocol based broth microdilution method; format: functional
Staphylococcus aureus [5] = test: Antibacterial activity against antibiotic resistant Staphylococcus aureus ATCC 700699 assessed as inhibition of bacterial growth by CLSI protocol based broth microdilution method; format: functional
[6] = tested on: Staphylococcus epidermidis; test: Antibacterial activity against antibiotic resistant Staphylococcus epidermidis ATCC 700296 assessed as inhibition of bacterial growth by CLSI protocol based broth microdilution method; format: functional
Bacillus subtilis = test: Antibacterial activity against antibiotic resistant Bacillus subtilis ATCC 6623 assessed as inhibition of bacterial growth by CLSI protocol based broth microdilution method; format: functional
Enterococcus faecalis = test: Antibacterial activity against antibiotic susceptible Enterococcus faecalis ATCC 29212 assessed as inhibition of bacterial growth by CLSI protocol based broth microdilution method; format: functional
Enterococcus faecium = test: Antibacterial activity against vancomycin resistant Enterococcus faecium ATCC 700221 assessed as inhibition of bacterial growth by CLSI protocol based broth microdilution method; format: functional
[7] = Cytotoxicity against human HEK293 cells reduction in cell viability incubated for 24 hrs by resazurin cell viability assay; format: toxicity, cell-based

O=C(O)c1ccc(-c2nn(-c3ccc(C(F)(F)F)cc3)cc2CNc2ccc(Br)cc2)cc1 gave an MIC (Staphylococcus aureus [1]) of 6.25 µg/mL (≈ 12.1 µM), an MIC (Staphylococcus aureus [2]) of 6.25 µg/mL (≈ 12.1 µM) and an MIC (Staphylococcus aureus [3]) of 3.12 µg/mL (≈ 6.04 µM). It also gave an MIC (Staphylococcus aureus [4]) of 6.25 µg/mL (≈ 12.1 µM), an MIC (Staphylococcus aureus [5]) of 3.12 µg/mL (≈ 6.04 µM) and an MIC [6] of 12.5 µg/mL (≈ 24.2 µM). For the same compound, the MIC (Bacillus subtilis) was 3.12 µg/mL (≈ 6.04 µM), the MIC (Enterococcus faecalis) was 6.25 µg/mL (≈ 12.1 µM) and the MIC (Enterococcus faecium) was 6.25 µg/mL (≈ 12.1 µM).
For Cc1cc(NCc2cn(-c3ccc(C(F)(F)F)cc3)nc2-c2ccc(C(=O)O)cc2)ccc1F, the MIC (Staphylococcus aureus [1]) was 12.5 µg/mL (≈ 26.6 µM), the MIC (Staphylococcus aureus [2]) was 25 µg/mL (≈ 53.3 µM) and the MIC (Staphylococcus aureus [3]) was 6.25 µg/mL (≈ 13.3 µM). For the same compound, the MIC (Staphylococcus aureus [4]) was 25 µg/mL (≈ 53.3 µM), the MIC (Staphylococcus aureus [5]) was 6.25 µg/mL (≈ 13.3 µM) and the MIC [6] was 25 µg/mL (≈ 53.3 µM). It also gave an MIC (Bacillus subtilis) of 12.5 µg/mL (≈ 26.6 µM), an MIC (Enterococcus faecalis) of 25 µg/mL (≈ 53.3 µM) and an MIC (Enterococcus faecium) of 12.5 µg/mL (≈ 26.6 µM).
For CSc1ccc(NCc2cn(-c3ccc(C(F)(F)F)cc3)nc2-c2ccc(C(=O)O)cc2)cc1, the MIC (Staphylococcus aureus [1]) was 12.5 µg/mL (≈ 25.9 µM), the MIC (Staphylococcus aureus [2]) was 25 µg/mL (≈ 51.7 µM) and the MIC (Staphylococcus aureus [3]) was 25 µg/mL (≈ 51.7 µM). The MIC (Staphylococcus aureus [4]) was 25 µg/mL (≈ 51.7 µM), the MIC (Staphylococcus aureus [5]) was 12.5 µg/mL (≈ 25.9 µM) and the MIC [6] was 50 µg/mL (≈ 103 µM). It also gave an MIC (Bacillus subtilis) of 25 µg/mL (≈ 51.7 µM), an MIC (Enterococcus faecalis) of 25 µg/mL (≈ 51.7 µM) and an MIC (Enterococcus faecium) of 12.5 µg/mL (≈ 25.9 µM).
Compound O=C(O)c1ccc(-c2nn(-c3ccc(C(F)(F)F)cc3)cc2CNc2ccc(C(F)(F)F)cc2)cc1 has an MIC (Staphylococcus aureus [1]) of 12.5 µg/mL (≈ 24.7 µM), an MIC (Staphylococcus aureus [2]) of 12.5 µg/mL (≈ 24.7 µM) and an MIC (Staphylococcus aureus [3]) of 6.25 µg/mL (≈ 12.4 µM). It also gave an MIC (Staphylococcus aureus [4]) of 12.5 µg/mL (≈ 24.7 µM), an MIC (Staphylococcus aureus [5]) of 3.12 µg/mL (≈ 6.17 µM) and an MIC [6] of 12.5 µg/mL (≈ 24.7 µM). It also gave an MIC (Bacillus subtilis) of 6.25 µg/mL (≈ 12.4 µM), an MIC (Enterococcus faecalis) of 25 µg/mL (≈ 49.5 µM) and an MIC (Enterococcus faecium) of 12.5 µg/mL (≈ 24.7 µM).
Compound O=C(O)c1ccc(-c2nn(-c3ccc(C(F)(F)F)cc3)cc2CNc2ccc(F)c([N+](=O)[O-])c2)cc1 has an MIC (Staphylococcus aureus [1]) of 12.5 µg/mL (≈ 25 µM), an MIC (Staphylococcus aureus [2]) of 25 µg/mL (≈ 50 µM) and an MIC (Staphylococcus aureus [3]) of 12.5 µg/mL (≈ 25 µM). The MIC (Staphylococcus aureus [4]) was 25 µg/mL (≈ 50 µM), the MIC (Staphylococcus aureus [5]) was 6.25 µg/mL (≈ 12.5 µM) and the MIC [6] was 25 µg/mL (≈ 50 µM). The MIC (Bacillus subtilis) was 12.5 µg/mL (≈ 25 µM).
For COc1ccc(NCc2cn(-c3ccc(C(F)(F)F)cc3)nc2-c2ccc(C(=O)O)cc2)cc1, the MIC (Staphylococcus aureus [1]) was 50 µg/mL (≈ 107 µM), the MIC (Staphylococcus aureus [3]) was 25 µg/mL (≈ 53.5 µM) and the MIC (Staphylococcus aureus [5]) was 25 µg/mL (≈ 53.5 µM). For the same compound, the MIC (Bacillus subtilis) was 25 µg/mL (≈ 53.5 µM).
Compound O=C(O)c1ccc(-c2nn(-c3ccc(C(F)(F)F)cc3)cc2CNc2ccc(Cl)cc2)cc1 has an MIC (Staphylococcus aureus [1]) of 6.25 µg/mL (≈ 13.2 µM), an MIC (Staphylococcus aureus [2]) of 6.25 µg/mL (≈ 13.2 µM) and an MIC (Staphylococcus aureus [3]) of 6.25 µg/mL (≈ 13.2 µM). It also gave an MIC (Staphylococcus aureus [4]) of 12.5 µg/mL (≈ 26.5 µM), an MIC (Staphylococcus aureus [5]) of 6.25 µg/mL (≈ 13.2 µM) and an MIC [6] of 12.5 µg/mL (≈ 26.5 µM). It also gave an MIC (Bacillus subtilis) of 6.25 µg/mL (≈ 13.2 µM), an MIC (Enterococcus faecalis) of 12.5 µg/mL (≈ 26.5 µM) and an MIC (Enterococcus faecium) of 6.25 µg/mL (≈ 13.2 µM).
O=C(O)c1ccc(-c2nn(-c3ccc(C(F)(F)F)cc3)cc2CNc2ccc(F)cc2)cc1 gave an MIC (Staphylococcus aureus [1]) of 25 µg/mL (≈ 54.9 µM), an MIC (Staphylococcus aureus [2]) of 25 µg/mL (≈ 54.9 µM) and an MIC (Staphylococcus aureus [3]) of 25 µg/mL (≈ 54.9 µM). The MIC (Staphylococcus aureus [4]) was 25 µg/mL (≈ 54.9 µM), the MIC (Staphylococcus aureus [5]) was 12.5 µg/mL (≈ 27.4 µM) and the MIC [6] was 50 µg/mL (≈ 110 µM). It also gave an MIC (Bacillus subtilis) of 25 µg/mL (≈ 54.9 µM) and an MIC (Enterococcus faecium) of 25 µg/mL (≈ 54.9 µM).
With O=C(O)c1ccc(-c2nn(-c3ccc(C(F)(F)F)cc3)cc2CNc2ccccc2)cc1 the MIC (Staphylococcus aureus [1]) was 25 µg/mL (≈ 57.2 µM), the MIC (Staphylococcus aureus [2]) was 50 µg/mL (≈ 114 µM) and the MIC (Staphylococcus aureus [3]) was 25 µg/mL (≈ 57.2 µM). The MIC (Staphylococcus aureus [4]) was 25 µg/mL (≈ 57.2 µM), the MIC (Staphylococcus aureus [5]) was 25 µg/mL (≈ 57.2 µM) and the MIC [6] was 25 µg/mL (≈ 57.2 µM). The MIC (Bacillus subtilis) was 25 µg/mL (≈ 57.2 µM) and the MIC (Enterococcus faecium) was 25 µg/mL (≈ 57.2 µM).
With O=C(O)c1ccc(-c2nn(-c3ccc(C(F)(F)F)cc3)cc2CNc2ccc(Cl)c(Cl)c2)cc1 the MIC (Staphylococcus aureus [1]) was 1.56 µg/mL (≈ 3.08 µM), the MIC (Staphylococcus aureus [2]) was 1.56 µg/mL (≈ 3.08 µM) and the MIC (Staphylococcus aureus [3]) was 1.56 µg/mL (≈ 3.08 µM). The MIC (Staphylococcus aureus [4]) was 1.56 µg/mL (≈ 3.08 µM), the MIC (Staphylococcus aureus [5]) was 0.78 µg/mL (≈ 1.54 µM) and the MIC [6] was 3.12 µg/mL (≈ 6.16 µM). The MIC (Bacillus subtilis) was 0.39 µg/mL (≈ 0.77 µM), the MIC (Enterococcus faecalis) was 3.12 µg/mL (≈ 6.16 µM) and the MIC (Enterococcus faecium) was 1.56 µg/mL (≈ 3.08 µM). It also gave an IC50 at 24 h [7] greater than 12 µg/mL.
O=C(O)c1ccc(-c2nn(-c3ccc(C(F)(F)F)cc3)cc2CNc2cccc(Br)c2)cc1 showed an MIC (Staphylococcus aureus [1]) of 3.12 µg/mL (≈ 6.04 µM), an MIC (Staphylococcus aureus [2]) of 3.12 µg/mL (≈ 6.04 µM) and an MIC (Staphylococcus aureus [3]) of 6.25 µg/mL (≈ 12.1 µM). It also gave an MIC (Staphylococcus aureus [4]) of 6.25 µg/mL (≈ 12.1 µM), an MIC (Staphylococcus aureus [5]) of 3.12 µg/mL (≈ 6.04 µM) and an MIC [6] of 12.5 µg/mL (≈ 24.2 µM). For the same compound, the MIC (Bacillus subtilis) was 6.25 µg/mL (≈ 12.1 µM), the MIC (Enterococcus faecalis) was 12.5 µg/mL (≈ 24.2 µM) and the MIC (Enterococcus faecium) was 6.25 µg/mL (≈ 12.1 µM).
Work on CC(C)(C)c1ccc(NCc2cn(-c3ccc(C(F)(F)F)cc3)nc2-c2ccc(C(=O)O)cc2)cc1 yielded an MIC (Staphylococcus aureus [1]) of 1.56 µg/mL (≈ 3.16 µM), an MIC (Staphylococcus aureus [2]) of 3.12 µg/mL (≈ 6.32 µM) and an MIC (Staphylococcus aureus [3]) of 1.56 µg/mL (≈ 3.16 µM). It also gave an MIC (Staphylococcus aureus [4]) of 3.12 µg/mL (≈ 6.32 µM), an MIC (Staphylococcus aureus [5]) of 1.56 µg/mL (≈ 3.16 µM) and an MIC [6] of 3.12 µg/mL (≈ 6.32 µM). It also gave an MIC (Bacillus subtilis) of 1.56 µg/mL (≈ 3.16 µM), an MIC (Enterococcus faecalis) of 3.12 µg/mL (≈ 6.32 µM) and an MIC (Enterococcus faecium) of 1.56 µg/mL (≈ 3.16 µM). For the same compound, the IC50 at 24 h [7] was 8 µg/mL (≈ 16.2 µM).
